Drawing on ChEMBL document CHEMBL5678818, “Discovery of potent SOS1 inhibitors that block RAS activation via disruption of the RAS-SOS1 interaction” (Proc Natl Acad Sci U S A, 2019), this text covers Activity for two compounds.

Experiment [1] addresses Mitogen-activated protein kinase 6 (Homo sapiens) (UniProt Q16659). In words: Inhibition of ERK3 (unknown origin) assessed as residual activity at 1000 nM by KINOMEscan analysis relative to control.
Experiment [2] has as its target T1, cAMP-dependent protein kinase catalytic subunit PRKX (Homo sapiens) (UniProt P51817).
T1 sequence (whole entry): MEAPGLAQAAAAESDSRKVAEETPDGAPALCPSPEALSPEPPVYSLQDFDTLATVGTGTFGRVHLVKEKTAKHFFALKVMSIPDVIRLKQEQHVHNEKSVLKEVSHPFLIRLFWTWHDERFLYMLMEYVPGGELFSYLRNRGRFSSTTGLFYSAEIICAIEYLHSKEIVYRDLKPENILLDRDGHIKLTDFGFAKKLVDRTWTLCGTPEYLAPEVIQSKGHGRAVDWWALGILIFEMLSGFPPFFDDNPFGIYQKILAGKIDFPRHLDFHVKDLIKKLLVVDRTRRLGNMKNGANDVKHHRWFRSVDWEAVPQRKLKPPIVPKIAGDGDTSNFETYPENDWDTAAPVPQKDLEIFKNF
Nature of the experiment: Inhibition of PRKX (unknown origin) assessed as residual activity at 1000 nM by KINOMEscan analysis relative to control.

The target in experiment [3] is Insulin-like growth factor 1 receptor (Homo sapiens) (UniProt P08069). Nature of the experiment: Inhibition of IGF1R (unknown origin) assessed as residual activity at 1000 nM by KINOMEscan analysis relative to control.
Sequence of Insulin-like growth factor 1 receptor (Homo sapiens) (P08069 31-736 limits assumed): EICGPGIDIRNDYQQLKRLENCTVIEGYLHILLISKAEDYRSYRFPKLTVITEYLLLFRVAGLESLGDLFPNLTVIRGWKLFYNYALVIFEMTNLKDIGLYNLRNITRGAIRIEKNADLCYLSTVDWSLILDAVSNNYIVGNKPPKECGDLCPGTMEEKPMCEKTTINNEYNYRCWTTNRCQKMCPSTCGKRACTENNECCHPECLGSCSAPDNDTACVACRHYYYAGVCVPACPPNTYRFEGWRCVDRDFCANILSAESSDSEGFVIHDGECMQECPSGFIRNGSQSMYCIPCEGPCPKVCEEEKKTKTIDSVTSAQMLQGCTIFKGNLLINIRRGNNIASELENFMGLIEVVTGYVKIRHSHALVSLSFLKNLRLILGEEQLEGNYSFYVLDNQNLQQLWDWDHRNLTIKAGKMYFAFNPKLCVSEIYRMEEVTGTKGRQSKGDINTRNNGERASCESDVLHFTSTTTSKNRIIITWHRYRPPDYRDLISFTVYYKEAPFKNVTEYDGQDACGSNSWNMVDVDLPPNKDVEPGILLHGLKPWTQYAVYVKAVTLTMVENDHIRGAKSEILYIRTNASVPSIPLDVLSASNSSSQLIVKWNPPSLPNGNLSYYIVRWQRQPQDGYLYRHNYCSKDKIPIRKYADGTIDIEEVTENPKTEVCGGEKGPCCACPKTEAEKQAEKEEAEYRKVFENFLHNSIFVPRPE
Sequence of Insulin-like growth factor 1 receptor (Homo sapiens) (P08069 741-1367 limits assumed): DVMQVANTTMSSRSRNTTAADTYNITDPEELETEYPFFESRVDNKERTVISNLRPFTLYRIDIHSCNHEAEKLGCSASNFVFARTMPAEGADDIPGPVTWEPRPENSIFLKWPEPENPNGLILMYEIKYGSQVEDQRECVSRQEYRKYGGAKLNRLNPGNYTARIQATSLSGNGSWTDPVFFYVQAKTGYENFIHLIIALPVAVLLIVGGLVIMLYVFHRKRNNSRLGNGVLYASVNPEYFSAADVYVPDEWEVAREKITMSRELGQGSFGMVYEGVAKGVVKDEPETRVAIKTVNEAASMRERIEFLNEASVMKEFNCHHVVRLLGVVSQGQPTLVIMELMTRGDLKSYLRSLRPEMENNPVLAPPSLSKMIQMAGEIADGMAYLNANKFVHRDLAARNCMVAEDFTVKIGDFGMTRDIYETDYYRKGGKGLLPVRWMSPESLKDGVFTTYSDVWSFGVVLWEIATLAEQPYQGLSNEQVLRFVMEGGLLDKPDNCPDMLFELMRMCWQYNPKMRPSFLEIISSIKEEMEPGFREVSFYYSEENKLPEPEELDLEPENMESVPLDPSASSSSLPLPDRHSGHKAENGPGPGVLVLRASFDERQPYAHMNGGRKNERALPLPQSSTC
The target in experiment [4] is Macrophage colony-stimulating factor 1 receptor (Homo sapiens) (UniProt P07333). In words: Inhibition of autoinhibited CSF1R (unknown origin) assessed as residual activity at 1000 nM by KINOMEscan analysis relative to control.
Sequence of Macrophage colony-stimulating factor 1 receptor (Homo sapiens) (P07333 whole entry): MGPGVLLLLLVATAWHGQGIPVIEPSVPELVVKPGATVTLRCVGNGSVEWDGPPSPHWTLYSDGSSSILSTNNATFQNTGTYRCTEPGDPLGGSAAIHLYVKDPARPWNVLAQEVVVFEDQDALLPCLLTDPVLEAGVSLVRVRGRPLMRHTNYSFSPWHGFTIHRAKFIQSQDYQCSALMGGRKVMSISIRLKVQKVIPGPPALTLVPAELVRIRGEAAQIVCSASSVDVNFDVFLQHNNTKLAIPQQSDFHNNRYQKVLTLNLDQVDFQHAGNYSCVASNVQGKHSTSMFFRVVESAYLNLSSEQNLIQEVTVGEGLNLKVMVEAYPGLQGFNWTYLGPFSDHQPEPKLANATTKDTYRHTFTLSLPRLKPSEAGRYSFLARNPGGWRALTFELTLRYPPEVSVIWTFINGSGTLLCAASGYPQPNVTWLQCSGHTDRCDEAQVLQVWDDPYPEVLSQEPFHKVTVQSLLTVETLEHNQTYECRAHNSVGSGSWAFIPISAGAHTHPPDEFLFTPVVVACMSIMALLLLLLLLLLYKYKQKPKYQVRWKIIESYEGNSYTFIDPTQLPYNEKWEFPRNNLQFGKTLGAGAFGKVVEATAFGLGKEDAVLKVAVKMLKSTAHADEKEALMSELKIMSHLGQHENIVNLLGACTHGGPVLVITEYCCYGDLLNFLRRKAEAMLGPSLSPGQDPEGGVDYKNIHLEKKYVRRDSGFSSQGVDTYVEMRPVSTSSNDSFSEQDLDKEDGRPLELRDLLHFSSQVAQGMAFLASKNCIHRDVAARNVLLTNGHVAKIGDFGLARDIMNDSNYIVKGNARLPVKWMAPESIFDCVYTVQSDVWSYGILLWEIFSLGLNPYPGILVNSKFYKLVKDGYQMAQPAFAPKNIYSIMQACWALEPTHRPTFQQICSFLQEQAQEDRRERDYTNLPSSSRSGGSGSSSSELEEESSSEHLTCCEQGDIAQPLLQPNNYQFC
The target of experiment [5] is RAC-alpha serine/threonine-protein kinase (Homo sapiens) (UniProt P31749). Nature of the experiment: Inhibition of AKT1 (unknown origin) assessed as residual activity at 1000 nM by KINOMEscan analysis relative to control.
Sequence of RAC-alpha serine/threonine-protein kinase (Homo sapiens) (P31749 whole entry): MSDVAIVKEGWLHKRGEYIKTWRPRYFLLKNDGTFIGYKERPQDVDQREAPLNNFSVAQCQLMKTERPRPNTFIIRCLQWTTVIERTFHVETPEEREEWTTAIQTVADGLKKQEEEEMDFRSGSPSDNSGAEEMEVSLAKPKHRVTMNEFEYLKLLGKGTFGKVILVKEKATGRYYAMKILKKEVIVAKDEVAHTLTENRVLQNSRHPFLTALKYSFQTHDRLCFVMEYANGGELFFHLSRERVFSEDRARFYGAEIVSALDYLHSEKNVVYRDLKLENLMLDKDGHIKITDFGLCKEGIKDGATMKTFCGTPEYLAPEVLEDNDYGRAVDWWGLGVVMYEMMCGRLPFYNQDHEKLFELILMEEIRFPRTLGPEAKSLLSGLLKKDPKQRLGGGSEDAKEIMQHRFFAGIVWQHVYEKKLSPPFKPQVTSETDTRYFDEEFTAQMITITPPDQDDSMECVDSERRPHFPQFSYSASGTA
The target in experiment [6] is Serine/threonine-protein kinase 32C (Homo sapiens) (UniProt Q86UX6). Nature of the experiment: Inhibition of YANK3 (unknown origin) assessed as residual activity at 1000 nM by KINOMEscan analysis relative to control.
Sequence of Serine/threonine-protein kinase 32C (Homo sapiens) (Q86UX6 whole entry): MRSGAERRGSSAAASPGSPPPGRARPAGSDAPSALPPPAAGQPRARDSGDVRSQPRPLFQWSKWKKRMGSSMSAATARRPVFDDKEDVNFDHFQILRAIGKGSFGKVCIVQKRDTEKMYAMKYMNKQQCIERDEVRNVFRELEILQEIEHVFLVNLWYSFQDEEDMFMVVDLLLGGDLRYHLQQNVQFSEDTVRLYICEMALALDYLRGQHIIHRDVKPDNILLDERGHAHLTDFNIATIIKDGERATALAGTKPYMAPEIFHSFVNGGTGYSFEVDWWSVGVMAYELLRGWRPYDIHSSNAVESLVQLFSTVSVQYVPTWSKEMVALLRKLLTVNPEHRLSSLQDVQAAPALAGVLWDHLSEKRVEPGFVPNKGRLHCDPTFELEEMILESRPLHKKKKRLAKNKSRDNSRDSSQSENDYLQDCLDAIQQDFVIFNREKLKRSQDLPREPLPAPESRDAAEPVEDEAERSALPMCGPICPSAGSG
For experiment [7], the target named is T2, Serine/threonine-protein kinase Chk1 (Homo sapiens) (UniProt O14757).
T2 sequence (whole entry): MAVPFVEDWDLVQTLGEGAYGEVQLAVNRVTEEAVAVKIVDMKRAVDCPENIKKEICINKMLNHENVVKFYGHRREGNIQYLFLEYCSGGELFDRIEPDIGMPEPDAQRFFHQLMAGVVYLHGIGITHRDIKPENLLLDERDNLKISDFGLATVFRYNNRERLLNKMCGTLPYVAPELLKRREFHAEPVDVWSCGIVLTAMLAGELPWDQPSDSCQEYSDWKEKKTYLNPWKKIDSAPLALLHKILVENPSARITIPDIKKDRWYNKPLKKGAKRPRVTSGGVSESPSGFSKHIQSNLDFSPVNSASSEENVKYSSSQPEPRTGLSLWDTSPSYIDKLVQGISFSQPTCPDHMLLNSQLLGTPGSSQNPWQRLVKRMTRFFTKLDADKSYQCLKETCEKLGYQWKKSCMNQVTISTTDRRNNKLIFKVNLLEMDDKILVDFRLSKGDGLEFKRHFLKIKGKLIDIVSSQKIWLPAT
Nature of the experiment: Inhibition of CHEK1 (unknown origin) assessed as residual activity at 1000 nM by KINOMEscan analysis relative to control.

Experiment [8] concerns the target T3, Receptor-interacting serine/threonine-protein kinase 4 (Homo sapiens) (UniProt P57078).
T3 sequence (whole entry): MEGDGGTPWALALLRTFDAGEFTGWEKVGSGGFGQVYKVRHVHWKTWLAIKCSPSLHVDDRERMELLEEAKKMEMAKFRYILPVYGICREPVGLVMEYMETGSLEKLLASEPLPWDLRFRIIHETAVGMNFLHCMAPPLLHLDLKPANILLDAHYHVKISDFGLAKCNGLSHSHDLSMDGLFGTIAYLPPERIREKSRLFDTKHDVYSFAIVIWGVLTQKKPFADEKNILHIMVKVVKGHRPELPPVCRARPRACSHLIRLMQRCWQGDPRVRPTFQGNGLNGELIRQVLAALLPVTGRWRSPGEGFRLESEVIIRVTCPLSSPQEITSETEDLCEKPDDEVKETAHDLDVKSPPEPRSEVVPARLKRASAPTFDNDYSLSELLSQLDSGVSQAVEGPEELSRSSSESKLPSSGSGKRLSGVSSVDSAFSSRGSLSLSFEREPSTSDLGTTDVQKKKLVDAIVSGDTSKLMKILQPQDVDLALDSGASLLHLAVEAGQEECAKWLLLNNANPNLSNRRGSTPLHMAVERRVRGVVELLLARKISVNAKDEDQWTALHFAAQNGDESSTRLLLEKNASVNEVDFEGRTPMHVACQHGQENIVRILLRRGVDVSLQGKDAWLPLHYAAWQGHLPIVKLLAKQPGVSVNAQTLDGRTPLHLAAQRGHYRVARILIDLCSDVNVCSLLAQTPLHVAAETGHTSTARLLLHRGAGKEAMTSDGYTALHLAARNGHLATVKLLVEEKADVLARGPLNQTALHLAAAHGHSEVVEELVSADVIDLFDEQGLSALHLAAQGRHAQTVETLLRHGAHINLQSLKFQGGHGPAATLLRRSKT
In words: Inhibition of RIPK4 (unknown origin) assessed as residual activity at 1000 nM by KINOMEscan analysis relative to control.

The target in experiment [9] is Ephrin type-A receptor 7 (Homo sapiens) (UniProt Q15375). Nature of the experiment: Inhibition of EPHA7 (unknown origin) assessed as residual activity at 1000 nM by KINOMEscan analysis relative to control.
Sequence of Ephrin type-A receptor 7 (Homo sapiens) (Q15375 28-998 limits assumed): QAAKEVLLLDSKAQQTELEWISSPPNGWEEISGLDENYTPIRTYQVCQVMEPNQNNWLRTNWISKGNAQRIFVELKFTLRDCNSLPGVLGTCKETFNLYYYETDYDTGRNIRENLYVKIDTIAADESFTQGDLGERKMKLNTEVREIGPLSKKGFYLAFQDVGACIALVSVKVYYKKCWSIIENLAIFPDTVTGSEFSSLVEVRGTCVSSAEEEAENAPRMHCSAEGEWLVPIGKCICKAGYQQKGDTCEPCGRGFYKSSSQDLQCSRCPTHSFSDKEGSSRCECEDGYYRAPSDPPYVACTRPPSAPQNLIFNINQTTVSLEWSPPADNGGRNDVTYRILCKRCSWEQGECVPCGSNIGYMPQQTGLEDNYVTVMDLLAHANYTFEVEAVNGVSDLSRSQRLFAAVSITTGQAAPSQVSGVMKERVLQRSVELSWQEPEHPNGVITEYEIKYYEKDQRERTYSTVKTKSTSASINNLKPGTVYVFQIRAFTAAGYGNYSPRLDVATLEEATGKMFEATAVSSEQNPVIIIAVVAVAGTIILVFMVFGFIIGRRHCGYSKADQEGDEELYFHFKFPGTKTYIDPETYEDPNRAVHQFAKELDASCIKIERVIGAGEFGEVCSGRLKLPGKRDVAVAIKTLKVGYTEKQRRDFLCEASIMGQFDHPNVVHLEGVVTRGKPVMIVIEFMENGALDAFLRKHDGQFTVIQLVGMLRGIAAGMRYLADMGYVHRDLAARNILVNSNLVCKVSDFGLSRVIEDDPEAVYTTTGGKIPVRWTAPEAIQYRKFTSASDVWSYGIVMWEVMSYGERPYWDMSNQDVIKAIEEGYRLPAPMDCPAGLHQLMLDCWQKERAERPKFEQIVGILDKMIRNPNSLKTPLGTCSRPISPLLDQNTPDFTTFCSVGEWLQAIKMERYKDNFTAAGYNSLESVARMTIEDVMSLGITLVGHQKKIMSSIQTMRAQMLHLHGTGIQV
Experiment [10] deals with Leucine-rich repeat serine/threonine-protein kinase 2 (Homo sapiens), Q5S007 [G2019S]. Nature of the experiment: Inhibition of LRRK2 G2019S mutant (unknown origin) assessed as residual activity at 1000 nM by KINOMEscan analysis relative to control.
Experiment [11] addresses Tyrosine-protein kinase ABL2 (Homo sapiens) (UniProt P42684). Nature of the experiment: Inhibition of ABL2 (unknown origin) assessed as residual activity at 1000 nM by KINOMEscan analysis relative to control.

The structures appear in SMILES notation.

Sequence of Mitogen-activated protein kinase 6 (Homo sapiens) (Q16659 whole entry): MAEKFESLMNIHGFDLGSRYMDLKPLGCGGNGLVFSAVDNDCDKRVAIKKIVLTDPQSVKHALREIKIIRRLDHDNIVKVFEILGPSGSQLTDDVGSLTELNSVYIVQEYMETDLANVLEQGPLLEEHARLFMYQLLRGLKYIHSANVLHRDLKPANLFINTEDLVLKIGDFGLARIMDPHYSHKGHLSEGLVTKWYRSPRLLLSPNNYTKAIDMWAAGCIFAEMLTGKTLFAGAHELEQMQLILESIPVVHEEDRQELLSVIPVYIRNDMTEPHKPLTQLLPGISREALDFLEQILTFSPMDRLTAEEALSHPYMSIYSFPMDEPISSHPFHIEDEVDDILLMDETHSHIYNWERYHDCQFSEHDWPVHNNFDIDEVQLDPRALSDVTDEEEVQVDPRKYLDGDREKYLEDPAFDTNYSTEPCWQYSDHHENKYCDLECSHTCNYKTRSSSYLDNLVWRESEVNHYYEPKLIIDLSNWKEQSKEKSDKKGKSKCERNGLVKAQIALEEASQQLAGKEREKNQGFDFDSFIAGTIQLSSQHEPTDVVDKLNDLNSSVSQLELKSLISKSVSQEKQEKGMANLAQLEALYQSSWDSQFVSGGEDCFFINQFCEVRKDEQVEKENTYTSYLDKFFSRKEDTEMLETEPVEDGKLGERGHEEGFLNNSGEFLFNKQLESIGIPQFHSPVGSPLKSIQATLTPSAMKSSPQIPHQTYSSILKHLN

Consider `COc1cc2nc(C)nc(N[C@H](C)c3cccc(-c4cn[nH]c4)c3)c2cc1OC`, for which the Activity came out at 100% in experiment [1]; 100% in [2]; 100% in [3]; 97% in [4]; 82% in experiment [5]; 98% in [6]. Moreover, the Activity stood at 98% in [7]; 70% in [8]; 100% in experiment [9]; 91% in [10]; 73% in experiment [11].
`COc1cc2ncnc(N[C@H](C)c3cccc4ccccc34)c2cc1OC`: the Activity in [1] is 94%; in experiment [2], 96%; in experiment [3] it was 100%; in experiment [4], 93%; in experiment [5] it was 87%; in experiment [6], 100%. The Activity was 100% in experiment [7]; 93% in [8]; 88% in [9]; 95% in [10]; 100% in experiment [11].
